Source: ChEMBL document CHEMBL2074568, “Characterization of the transport properties of human multidrug resistance protein 7 (MRP7, ABCC10)” (Mol Pharmacol, 2003)

How the values were obtained:
Assay type in all cases: functional, cell membranes
Parameters in all cases: scale not given: the % may be the effect or the level left
[1] = target: T1, ATP-binding cassette sub-family C member 10 (Homo sapiens) (UniProt Q5T3U5); experiment: TP_TRANSPORTER: inhibition of E217betaG uptake (E217betaG: 1 uM, 16alpha,17beta-Estriol 16-(beta-D-glucuronide): 100 uM) in membrane vesicles from MRP7-expressing HEK293 cells; conditions: Membrane vesicle
T1 sequence (whole entry): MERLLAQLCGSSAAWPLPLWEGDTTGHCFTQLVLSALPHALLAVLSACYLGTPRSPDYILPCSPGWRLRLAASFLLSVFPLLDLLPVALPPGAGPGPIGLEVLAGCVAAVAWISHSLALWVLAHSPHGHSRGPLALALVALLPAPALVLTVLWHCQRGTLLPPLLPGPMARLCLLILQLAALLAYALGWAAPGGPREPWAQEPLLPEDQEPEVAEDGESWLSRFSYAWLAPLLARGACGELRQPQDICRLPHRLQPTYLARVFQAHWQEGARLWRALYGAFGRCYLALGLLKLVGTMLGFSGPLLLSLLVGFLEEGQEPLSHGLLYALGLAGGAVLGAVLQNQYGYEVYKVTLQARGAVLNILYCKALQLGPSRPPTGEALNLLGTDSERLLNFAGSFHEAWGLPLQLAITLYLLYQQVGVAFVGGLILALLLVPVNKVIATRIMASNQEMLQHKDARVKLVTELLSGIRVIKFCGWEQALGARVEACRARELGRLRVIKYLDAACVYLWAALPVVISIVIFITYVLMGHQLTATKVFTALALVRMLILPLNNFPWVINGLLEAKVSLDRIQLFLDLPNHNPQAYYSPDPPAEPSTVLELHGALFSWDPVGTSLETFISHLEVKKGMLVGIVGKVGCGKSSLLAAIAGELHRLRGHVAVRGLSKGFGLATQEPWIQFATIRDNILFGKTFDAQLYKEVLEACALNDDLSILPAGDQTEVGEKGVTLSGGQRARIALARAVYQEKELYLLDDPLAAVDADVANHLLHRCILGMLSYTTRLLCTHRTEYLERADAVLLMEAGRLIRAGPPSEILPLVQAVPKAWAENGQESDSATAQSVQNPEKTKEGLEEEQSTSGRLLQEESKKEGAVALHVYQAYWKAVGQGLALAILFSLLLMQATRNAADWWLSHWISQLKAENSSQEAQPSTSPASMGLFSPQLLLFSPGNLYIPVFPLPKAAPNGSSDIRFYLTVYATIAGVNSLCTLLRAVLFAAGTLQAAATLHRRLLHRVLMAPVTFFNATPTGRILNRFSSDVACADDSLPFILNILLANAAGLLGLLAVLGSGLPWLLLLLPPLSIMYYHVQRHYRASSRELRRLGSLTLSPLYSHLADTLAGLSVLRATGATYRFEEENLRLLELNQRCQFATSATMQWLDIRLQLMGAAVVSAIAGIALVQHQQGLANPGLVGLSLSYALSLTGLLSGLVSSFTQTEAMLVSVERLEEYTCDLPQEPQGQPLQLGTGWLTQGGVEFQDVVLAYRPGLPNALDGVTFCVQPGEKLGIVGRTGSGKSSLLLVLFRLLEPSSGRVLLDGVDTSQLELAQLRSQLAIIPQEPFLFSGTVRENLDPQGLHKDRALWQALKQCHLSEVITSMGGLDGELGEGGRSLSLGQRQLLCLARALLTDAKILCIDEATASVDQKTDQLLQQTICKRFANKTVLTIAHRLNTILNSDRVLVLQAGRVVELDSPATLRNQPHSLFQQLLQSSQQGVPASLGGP

[2] = target: T1, ATP-binding cassette sub-family C member 10 (Homo sapiens); experiment: TP_TRANSPORTER: inhibition of E217betaG uptake (E217betaG: 1 uM, DNP-SG:10uM) in membrane vesicles from MRP7-expressing HEK293 cells; conditions: Membrane vesicle
[3] = target: T1, ATP-binding cassette sub-family C member 10 (Homo sapiens); experiment: TP_TRANSPORTER: inhibition of E217betaG uptake (E217betaG: 1 uM, beta-Estradiol: 100 uM) in membrane vesicles from MRP7-expressing HEK293 cells; conditions: Membrane vesicle
[4] = target: T1, ATP-binding cassette sub-family C member 10 (Homo sapiens); experiment: TP_TRANSPORTER: inhibition of E217betaG uptake (E217betaG: 1 uM, 17alpha-Ethynyl-17beta-Estradiol: 100 uM) in membrane vesicles from MRP7-expressing HEK293 cells; conditions: Membrane vesicle
[5] = target: T1, ATP-binding cassette sub-family C member 10 (Homo sapiens); experiment: TP_TRANSPORTER: inhibition of E217betaG uptake (E217betaG: 1 uM, Verapamil: 100 uM) in membrane vesicles from MRP7-expressing HEK293 cells; conditions: Membrane vesicle
[6] = target: T1, ATP-binding cassette sub-family C member 10 (Homo sapiens); experiment: TP_TRANSPORTER: inhibition of E217betaG uptake (E217betaG: 1 uM, 16alpha,17beta-Estriol 3-(beta-D-glucuronide): 100 uM) in membrane vesicles from MRP7-expressing HEK293 cells; conditions: Membrane vesicle
[7] = target: T1, ATP-binding cassette sub-family C member 10 (Homo sapiens); experiment: TP_TRANSPORTER: inhibition of E217betaG uptake (E217betaG: 1 uM, Doxorubicin: 30 uM) in membrane vesicles from MRP7-expressing HEK293 cells; conditions: Membrane vesicle
[8] = target: T1, ATP-binding cassette sub-family C member 10 (Homo sapiens); experiment: TP_TRANSPORTER: inhibition of E217betaG uptake (E217betaG: 1 uM, LTC4:1uM) in membrane vesicles from MRP7-expressing HEK293 cells; conditions: Membrane vesicle
[9] = target: T1, ATP-binding cassette sub-family C member 10 (Homo sapiens); experiment: TP_TRANSPORTER: inhibition of E217betaG uptake (E217betaG: 1 uM, Zaprinast: 100uM) in membrane vesicles from MRP7-expressing HEK293 cells; conditions: Membrane vesicle
[10] = target: T1, ATP-binding cassette sub-family C member 10 (Homo sapiens); experiment: TP_TRANSPORTER: inhibition of E217betaG uptake (E217betaG: 1 uM, Vincristine: 30 uM) in membrane vesicles from MRP7-expressing HEK293 cells; conditions: Membrane vesicle
[11] = target: T1, ATP-binding cassette sub-family C member 10 (Homo sapiens); experiment: TP_TRANSPORTER: inhibition of E217betaG uptake (E217betaG: 1 uM, Taxol: 30 uM) in membrane vesicles from MRP7-expressing HEK293 cells; conditions: Membrane vesicle
[12] = target: T1, ATP-binding cassette sub-family C member 10 (Homo sapiens); experiment: TP_TRANSPORTER: inhibition of E217betaG uptake (E217betaG: 1 uM, Trequinsin: 100 uM) in membrane vesicles from MRP7-expressing HEK293 cells; conditions: Membrane vesicle
[13] = target: T1, ATP-binding cassette sub-family C member 10 (Homo sapiens); experiment: TP_TRANSPORTER: inhibition of E217betaG uptake (E217betaG: 1 uM, Glycocholate: 100uM) in membrane vesicles from MRP7-expressing HEK293 cells; conditions: Membrane vesicle
[14] = target: T1, ATP-binding cassette sub-family C member 10 (Homo sapiens); experiment: TP_TRANSPORTER: inhibition of E217betaG uptake (E217betaG: 1 uM, 16alpha,17beta-Estriol 3-sulfate: 100 uM) in membrane vesicles from MRP7-expressing HEK293 cells; conditions: Membrane vesicle
[15] = target: T1, ATP-binding cassette sub-family C member 10 (Homo sapiens); experiment: TP_TRANSPORTER: inhibition of E217betaG uptake (E217betaG: 1 uM, VP-16: 30 uM) in membrane vesicles from MRP7-expressing HEK293 cells; conditions: Membrane vesicle
[16] = target: T1, ATP-binding cassette sub-family C member 10 (Homo sapiens); experiment: TP_TRANSPORTER: inhibition of E217betaG uptake (E217betaG: 1 uM, MTX:100uM) in membrane vesicles from MRP7-expressing HEK293 cells; conditions: Membrane vesicle
[17] = target: T1, ATP-binding cassette sub-family C member 10 (Homo sapiens); experiment: TP_TRANSPORTER: inhibition of E217betaG uptake (E217betaG: 1 uM, Estradiol-3-glucuronide: 100 uM) in membrane vesicles from MRP7-expressing HEK293 cells; conditions: Membrane vesicle
[18] = target: T1, ATP-binding cassette sub-family C member 10 (Homo sapiens); experiment: TP_TRANSPORTER: inhibition of E217betaG uptake (E217betaG: 1 uM, Sildefafil:100uM) in membrane vesicle from MRP7-expressing HEK293 cells
[19] = target: T1, ATP-binding cassette sub-family C member 10 (Homo sapiens); experiment: TP_TRANSPORTER: inhibition of E217betaG uptake (E217betaG: 1 uM, Sulfinpyrazone:30uM) in membrane vesicles from MRP7-expressing HEK293 cells; conditions: Membrane vesicle
[20] = target: T1, ATP-binding cassette sub-family C member 10 (Homo sapiens); experiment: TP_TRANSPORTER: inhibition of E217betaG uptake (E217betaG: 1 uM, Glycholithocholate-3-sulfate: 30 uM) in membrane vesicles from MRP7-expressing HEK293 cells; conditions: Membrane vesicle
[21] = target: T1, ATP-binding cassette sub-family C member 10 (Homo sapiens); experiment: TP_TRANSPORTER: inhibition of E217betaG uptake (E217betaG: 1 uM, E2 3SO4 17betaG: 100uM) in membrane vesicles from MRP7-expressing HEK293 cells; conditions: Membrane vesicle

C[C@]12CC[C@@H]3c4ccc(O)cc4CC[C@H]3[C@@H]1C[C@@H](O[C@@H]1O[C@H](C(=O)O)[C@@H](O)[C@H](O)[C@H]1O)[C@@H]2O
Activity [1]: 53%

N[C@@H](CCC(=O)N[C@H](CSc1ccc([N+](=O)[O-])cc1[N+](=O)[O-])C(=O)NCC(=O)O)C(=O)O
Activity [2]: 46.4%

C[C@]12CC[C@@H]3c4ccc(O)cc4CC[C@H]3[C@@H]1CC[C@@H]2O
Activity [3]: 60.7%

C#C[C@]1(O)CC[C@H]2[C@@H]3CCc4cc(O)ccc4[C@H]3CC[C@@]21C
Activity [4]: 51.4%

COc1ccc(CCN(C)CCCC(C#N)(c2ccc(OC)c(OC)c2)C(C)C)cc1OC (stereo unspecified)
Activity [5]: 62.3%

C[C@]12CC[C@@H]3c4ccc(O[C@@H]5O[C@H](C(=O)O)[C@@H](O)[C@H](O)[C@H]5O)cc4CC[C@H]3[C@@H]1C[C@@H](O)[C@@H]2O
Activity [6]: 58.5%

COc1cccc2c1C(=O)c1c(O)c3c(c(O)c1C2=O)C[C@@](O)(C(=O)CO)C[C@@H]3O[C@H]1C[C@H](N)[C@H](O)[C@H](C)O1
Activity [7]: 18.2%

CCCCC/C=C\C\C=C/C=C/C=C/[C@@H](SC[C@@H](NC(=O)CC[C@H](N)C(=O)O)C(=O)NCC(=O)O)[C@@H](O)CCCC(=O)O
Activity [8]: 40.4%

CCCOc1ccccc1-c1nc2[nH]nnc2c(=O)[nH]1
Activity [9]: 48.3%

CC[C@]1(O)C[C@H]2CN(CCc3c([nH]c4ccccc34)[C@@](C(=O)OC)(c3cc4c(cc3OC)N(C=O)[C@H]3[C@@](O)(C(=O)OC)[C@H](OC(C)=O)[C@]5(CC)C=CCN6CC[C@]43[C@@H]65)C2)C1
Activity [10]: 18.4%

CC(=O)O[C@H]1C(=O)[C@@]2(C)[C@H]([C@H](OC(=O)c3ccccc3)[C@]3(O)C[C@H](OC(=O)[C@H](O)[C@@H](NC(=O)c4ccccc4)c4ccccc4)C(C)=C1C3(C)C)[C@]1(OC(C)=O)CO[C@@H]1C[C@@H]2O
Activity [11]: 22.1%

COc1cc2c(cc1OC)-c1c/c(=N\c3c(C)cc(C)cc3C)n(C)c(=O)n1CC2
Activity [12]: 44.3%

C[C@H](CCC(=O)NCC(=O)O)[C@H]1CC[C@H]2[C@@H]3[C@H](O)C[C@@H]4C[C@H](O)CC[C@]4(C)[C@H]3C[C@H](O)[C@]12C
Activity [13]: 58.4%

C[C@]12CC[C@@H]3c4ccc(OS(=O)(=O)O)cc4CC[C@H]3[C@@H]1C[C@@H](O)[C@@H]2O
Activity [14]: 49.4%

COc1cc([C@@H]2c3cc4c(cc3[C@@H](O[C@@H]3O[C@@H]5CO[C@@H](C)O[C@H]5[C@H](O)[C@H]3O)[C@H]3COC(=O)[C@H]23)OCO4)cc(OC)c1O
Activity [15]: 49.5%

CN(Cc1cnc2nc(N)nc(N)c2n1)c1ccc(C(=O)N[C@@H](CCC(=O)O)C(=O)O)cc1
Activity [16]: 74%

C[C@]12CC[C@@H]3c4ccc(O[C@@H]5O[C@H](C(=O)O)[C@@H](O)[C@H](O)[C@H]5O)cc4CC[C@H]3[C@@H]1CC[C@@H]2O
Activity [17]: 60.1%

CCCc1nn(C)c2c(=O)[nH]c(-c3cc(S(=O)(=O)N4CCN(C)CC4)ccc3OCC)nc12
Activity [18]: 41%

O=C1C(CC[S+]([O-])c2ccccc2)C(=O)N(c2ccccc2)N1c1ccccc1 (stereo unspecified)
Activity [19]: 39.5%

C[C@H](CCC(=O)NCC(=O)O)[C@H]1CC[C@H]2[C@@H]3CC[C@@H]4C[C@H](OS(=O)(=O)O)CC[C@]4(C)[C@H]3CC[C@]12C
Activity [20]: 41.8%

C[C@]12CC[C@@H]3c4ccc(OS(=O)(=O)O)cc4CC[C@H]3[C@@H]1CC[C@@H]2O[C@@H]1O[C@H](C(=O)O)[C@@H](O)[C@H](O)[C@H]1O
Activity [21]: 45.1%
